Experimental data published in patent US11242337B2, “Compounds useful for treating gastrointestinal tract disorders” (Ardelyx, Inc., priority 2017, dated 2022).
Where two headings read alike, the source gives them in different places.

Experiments:
[1] = tested on: human ileum monolayer culture; experiment: Sustained inhibition of apical acid secretion in human organoid monolayer cell cultures (ileum); assay type: cell-based; details: Homo sapiens, 48 h; 1 μM apical, dosed day 6, apical media pH day 8, vs DMSO
Method in brief: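 Human ileum organoid-derived Transwell monolayers, differentiated with ENRA from day 3, received 1 μM compound apically on day 6 (DMSO vehicle, duplicate wells). Apical medium pH was measured by electrode on day 8 as a readout of sustained NHE3-mediated proton secretion inhibition.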

[2] = tested on: human duodenum monolayer culture; experiment: Sustained inhibition of apical acid secretion in human organoid monolayer cell cultures (duodenum); assay type: cell-based; details: Homo sapiens
Method in brief: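 Duodenum organoid cells were plated on Transwells, differentiated with EGF/noggin/A83-01 from day 3, and dosed apically on day 6 with compound at 1 μM final (DMSO vehicle control), in duplicate wells, at 37° C, 5% CO2. Apical media pH was measured by electrode on day 8.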

[3] = tested on: absorption of sodium from the intestinal lumen; experiment: Inhibition of intestinal sodium absorption in mice; assay type: in vivo; details: CD-1 mice, 15 mg/kg oral gavage twice daily; for Fecal fluid content (Δ from vehicle): day 3, change from vehicle group mean; for response vs control in vivo at 15 mg/kg: Mus musculus, 72 h, day 3, normalized to dietary sodium intake
Method in brief: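 Male ~8-week CD-1 mice on chow with added 0.4% inorganic phosphorous, in metabolic cages after 3-day acclimation and 24-hr baseline collection. Urine sodium by ion chromatography, dried fecal sodium by MP-AES; day-3 24-hour excretion normalized to dietary sodium intake and expressed as % of vehicle mean; diarrhea and fecal fluid also recorded.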

[4] = read-out: Fecal Na Excretion (% of vehicle)
[5] = read-out: Urinary Na Excretion (% of vehicle)

Row | Structure (SMILES) | inhibition at 1 µM [1] [%] | inhibition at 1 µM [2] [%] | Fecal fluid content (Δ from vehicle) [3] | response vs control in vivo at 15 mg/kg [3, 4] [%] | response vs control in vivo at 15 mg/kg [3, 5] [%]
1 | Cc1cc(Cl)cc2c1C[C@H](N(C)C)[C@H]2Oc1ccc(S(=O)(=O)NCCOCCOCCNC(=O)NCCCCNC(=O)NCCOCCOCCNS(=O)(=O)c2ccc(O[C@H]3c4cc(Cl)cc(C)c4C[C@@H]3N(C)C)c(F)c2)cc1F [Example 24, 3-[2-(2-[2-[(4-[[(1S,2S)-6-Chloro-2-(dimethylamino)-4-methyl-2,3-dihydro-1H-inden-1-yl]oxy]-3-fluorobenzene)sulfonamido]ethoxy]ethoxy)ethyl]-1-[4-([[2-(2-[2-[(4-[[(1S,2S)-6-chloro-2-(dimethylamino)-4-methyl-2,3-dihydro-1H-inden-1-yl]oxy]-3-fluorobenzene)sulfonamido]ethoxy]ethoxy)ethyl]carbamoyl]amino)butyl]urea] | < 50 | 50 to 70 | A (<5) | > 200 | 50 to 70
2 | Cc1cc(S(=O)(=O)N2CC[C@@H](COCCOCCNC(=O)NCCCCNC(=O)NCCOCCOC[C@@H]3CCN(S(=O)(=O)c4ccc(O[C@H]5c6cc(Cl)cc(Cl)c6C[C@@H]5N(C)C)c(C)c4)C3)C2)ccc1O[C@H]1c2cc(Cl)cc(Cl)c2C[C@@H]1N(C)C [Example 45, 3-[2-(2-[[(3R)-1-[(4-[[(1S,2S)-4,6-Dichloro-2-(dimethylamino)-2,3-dihydro-1H-inden-1-yl]oxy]-3-methylbenzene)sulfonyl]pyrrolidin-3-yl]methoxy]ethoxy)ethyl]-1-[4-([[2-(2[[(3R)-1-[(4-[[(1S,2S)-4,6-dichloro-2-(dimethylamino)-2,3-dihydro-1H-inden-1-yl]oxy]-3-methylbenzene)sulfonyl]pyrrolidin-3-yl]methoxy]ethoxy)ethyl]carbamoyl]amino)butyl]urea; bis(trifluoroacetic acid)] | 50 to 70 | > 70 | A (<5) | < 150 | > 70
3 | Cc1cc(S(=O)(=O)N[C@H]2CCN(CCOCCNC(=O)NCCCCNC(=O)NCCOCCN3CC[C@H](NS(=O)(=O)c4ccc(O[C@H]5c6cc(Cl)cc(Cl)c6C[C@@H]5N(C)C)c(C)c4)C3)C2)ccc1O[C@H]1c2cc(Cl)cc(Cl)c2C[C@@H]1N(C)C [Example 52, 3-(2-[2-[(3S)-3-[(4-[[(1S,2S)-4,6-Dichloro-2-(dimethylamino)-2,3-dihydro-1H-inden-1-yl]oxy]-3-methylbenzene)sulfonamido]pyrrolidin-1-yl]ethoxy]ethyl)-1-(4-[[(2-[2-[(3S)-3-[(4-[[(1S,2S)-4,6-dichloro-2-(dimethylamino)-2,3-dihydro-1H-inden-1-yl]oxy]-3-methylbenzene)sulfonamido]pyrrolidin-1-yl]ethoxy]ethyl)carbamoyl]amino]butyl)urea] | > 70 | > 70 | B (5-10) | > 200 | 50 to 70
4 | N#Cc1cc(Cl)cc2c1C[C@H](N1CCNCC1)[C@H]2Oc1ccc(S(=O)(=O)NCCOCCOCCNC(=O)NCCCCNC(=O)NCCOCCOCCNS(=O)(=O)c2ccc(O[C@H]3c4cc(Cl)cc(C#N)c4C[C@@H]3N3CCNCC3)cc2)cc1 [Example 41, 3-[2-(2-[2-[(4-[[(1S,2S)-6-Chloro-4-cyano-2-(piperazin-1-yl)-2,3-dihydro-1H-inden-1-yl]oxy]benzene)sulfonamido]ethoxy]ethoxy)ethyl]-1-[4-([[2-(2-[2-[(4-[[(1S,2S)-6-chloro-4-cyano-2-(piperazin-1-yl)-2,3-dihydro-1H-inden-1-yl]oxy]benzene)sulfonamido]ethoxy]ethoxy)ethyl]carbamoyl]amino)butyl]urea; bis(trifluoroacetic acid)] | 50 to 70 | > 70 | B (5-10) | > 200 | < 50
5 | Cc1cc(Cl)cc2c1C[C@H](N1CCNCC1)[C@H]2Oc1ccc(S(=O)(=O)NCCOCCOCCNC(=O)NCCCCNC(=O)NCCOCCOCCNS(=O)(=O)c2ccc(O[C@H]3c4cc(Cl)cc(C)c4C[C@@H]3N3CCNCC3)c(F)c2)cc1F [Example 36, 3-[2-(2-[2-[(4-[[(1S,2S)-6-Chloro-4-methyl-2-(piperazin-1-yl)-2,3-dihydro-1H-inden-1-yl]oxy]-3-fluorobenzene)sulfonamido]ethoxy]ethoxy)ethyl]-1-[4-([[2-(2-[2-[(4-[[(1S,2S)-6-chloro-4-methyl-2-(piperazin-1-yl)-2,3-dihydro-1H-inden-1-yl]oxy]-3-fluorobenzene)sulfonamido]ethoxy]ethoxy)ethyl]carbamoyl]amino)butyl]urea; bis(trifluoroacetic acid)] | > 70 | > 70 | B (5-10) | 150 to 200 | 50 to 70
6 | N#Cc1cc(Cl)cc2c1C[C@H](N1CCNCC1)[C@H]2Oc1ccc(S(=O)(=O)NCCOCCOCCNC(=O)NCCCCNC(=O)NCCOCCOCCNS(=O)(=O)c2ccc(O[C@H]3c4cc(Cl)cc(C#N)c4C[C@@H]3N3CCNCC3)c(F)c2)cc1F [Example 43, 3-[2-(2-[2-[(4-[[(1S,2S)-6-Chloro-4-cyano-2-(piperazin-1-yl)-2,3-dihydro-1H-inden-1-yl]oxy]-3-fluorobenzene)sulfonamido]ethoxy]ethoxy)ethyl]-1-[4-([[2-(2-[2-[(4-[[(1S,2S)-6-chloro-4-cyano-2-(piperazin-1-yl)-2,3-dihydro-1H-inden-1-yl]oxy]-3-fluorobenzene)sulfonamido]ethoxy]ethoxy)ethyl]carbamoyl]amino)butyl]urea; bis(trifluoroacetic acid)] | 50 to 70 | > 70 | C (>10) | > 200 | < 50
7 | Cc1cc(Cl)cc2c1C[C@H](N1CCC[C@@H](N(C)C)C1)[C@H]2Oc1ccc(S(=O)(=O)NCCOCCOCCNC(=O)NCCCCNC(=O)NCCOCCOCCNS(=O)(=O)c2ccc(O[C@H]3c4cc(Cl)cc(C)c4C[C@@H]3N3CCC[C@@H](N(C)C)C3)cc2)cc1 [Example 28, 3-[2-(2-[2-[(4-[[(1S,2S)-6-Chloro-2-[(3R)-3-(dimethylamino)piperidin-1-yl]-4-methyl-2,3-dihydro-1H-inden-1-yl]oxy]benzene)sulfonamido]ethoxy]ethoxy)ethyl]-1-[4-([[2-(2-[2-[(4-[[(1S,2S)-6-chloro-2-[(3R)-3-(dimethylamino)piperidin-1-yl]-4-methyl-2,3-dihydro-1H-inden-1-yl]oxy]benzene)sulfonamido]ethoxy]ethoxy)ethyl]carbamoyl]amino)butyl]urea; bis(trifluoroacetic acid)] | 50 to 70 | 50 to 70 | B (5-10) | 150 to 200 | > 70
8 | Cc1cc(S(=O)(=O)NCCOCCOCCNC(=O)NCCCCNC(=O)NCCOCCOCCNS(=O)(=O)c2ccc(O[C@H]3c4cc(Cl)cc(C)c4C[C@@H]3N3CCC[C@@H](N(C)C)C3)c(C)c2)ccc1O[C@H]1c2cc(Cl)cc(C)c2C[C@@H]1N1CCC[C@@H](N(C)C)C1 [Example 29] | > 70 | > 70 | A (<5) | 150 to 200 | 50 to 70
9 | Cc1cc(S(=O)(=O)N2CC[C@@H](COc3ccnc(CNC(=O)NCCCCNC(=O)NCc4cc(OC[C@@H]5CCN(S(=O)(=O)c6ccc(O[C@H]7c8cc(Cl)cc(Cl)c8C[C@@H]7N(C)C)c(C)c6)C5)ccn4)c3)C2)ccc1O[C@H]1c2cc(Cl)cc(Cl)c2C[C@@H]1N(C)C [Example 49, 3-[(4-[[(3R)-1-[(4-[[(1S,2S)-4,6-Dichloro-2-(dimethylamino)-2,3-dihydro-1H-inden-1-yl]oxy]-3-methylbenzene)sulfonyl]pyrrolidin-3-yl]methoxy]pyridin-2-yl)methyl]-1-[4-([[(4-[[(3R)-1-[(4-[[(1S,2S)-4,6-dichloro-2-(dimethylamino)-2,3-dihydro-1H-inden-1-yl]oxy]-3-methylbenzene)sulfonyl]pyrrolidin-3-yl]methoxy]pyridin-2-yl)methyl]carbamoyl]amino)butyl]urea] | > 70 | > 70 | A (<5) | < 150 | > 70
10 | Cc1cc(S(=O)(=O)NCCOCCOCCNC(=O)NCCCCNC(=O)NCCOCCOCCNS(=O)(=O)c2ccc(O[C@H]3c4cc(Cl)cc(C)c4C[C@@H]3N3CCNCC3)c(C)c2)ccc1O[C@H]1c2cc(Cl)cc(C)c2C[C@@H]1N1CCNCC1 [Example 35, 3-[2-(2-[2-[(4-[[(1S,2S)-6-Chloro-4-methyl-2-(piperazin-1-yl)-2,3-dihydro-1H-inden-1-yl]oxy]-3-methylbenzene)sulfonamido]ethoxy]ethoxy)ethyl]-1-[4-([[2-(2-[2-[(4-[[(1S,2S)-6-chloro-4-methyl-2-(piperazin-1-yl)-2,3-dihydro-1H-inden-1-yl]oxy]-3-methylbenzene)sulfonamido]ethoxy]ethoxy)ethyl]carbamoyl]amino)butyl]urea; bis(trifluoroacetic acid)] | > 70 | > 70 | A (<5) | 150 to 200 | > 70
